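Dose response: 5 concentrations. Exposure: 48 h. Format: 96-well plates. Endpoint: linear interpolation; highest concentration if not reached. GI50 marks 50% less growth.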 Activity calls are given as the source filed them. Cut-off read from the data, not from the text of the source: active = GI50 up to about 1.1 µM and inactive = higher.
Experiments:
Assay in all cases: NCI tumour cell line growth inhibition, 48 h
[1] = system: ACHN
[2] = system: BT-549
[3] = system: CAKI-1
[4] = system: HOP-92
[5] = system: HT-29
[6] = system: K562
[7] = system: M14
[8] = system: Malme-3M
[9] = system: NCI-H226
[10] = system: NCI-H460
[11] = system: NCI-H522
[12] = system: NCI/ADR-RES
[13] = system: OVCAR-4
[14] = system: OVCAR-8
[15] = system: SF-268
[16] = system: SK-MEL-2
[17] = system: TK-10
[18] = system: OVCAR-3
[19] = system: RXF 393
[20] = system: A498

Row | Compound | GI50 [1] | GI50 [2] | GI50 [3] | GI50 [4] | GI50 [5] | GI50 [6] | GI50 [7] | GI50 [8] | GI50 [9] | GI50 [10] | GI50 [11] | GI50 [12] | GI50 [13] | GI50 [14] | GI50 [15] | GI50 [16] | GI50 [17] | GI50 [18] | GI50 [19] | GI50 [20]
1 | CCCCCCCCCOC(=O)c1cnc(Cl)cn1 | 19.4 µM (inactive) | 26.5 µM (inactive) | 16.9 µM (inactive) | 42.4 µM (inactive) | 29 µM (inactive) | 36.8 µM (inactive) | 18.4 µM (inactive) | 19.6 µM (inactive) | 18.2 µM (inactive) | 20.8 µM (inactive) | 19 µM (inactive) | 22.2 µM (inactive) | 27.9 µM (inactive) | 33.4 µM (inactive) | 21.2 µM (inactive) | 22.1 µM (inactive) | 20.5 µM (inactive) |  |  | 
2 | CN(C)c1ccc(/C=C2\Oc3cc(O)ccc3C2=O)cc1 | > 100 µM (inactive) | 65.8 µM (inactive) | > 100 µM (inactive) |  |  | 37.8 µM (inactive) | 75.7 µM (inactive) |  | > 100 µM (inactive) | 80.5 µM (inactive) | 28.1 µM (inactive) | 83.4 µM (inactive) | > 100 µM (inactive) | > 100 µM (inactive) | > 100 µM (inactive) |  | > 100 µM (inactive) | 38.7 µM (inactive) | > 100 µM (inactive) | 
3 | CC1(C)OCC(COC(=O)NCn2cc(-c3ccccc3)nn2)O1 (configuration not stated) | > 100 µM (inactive) | > 100 µM (inactive) | > 100 µM (inactive) | > 100 µM (inactive) | > 100 µM (inactive) | > 100 µM (inactive) | > 100 µM (inactive) | > 100 µM (inactive) | > 100 µM (inactive) | > 100 µM (inactive) | > 100 µM (inactive) | > 100 µM (inactive) | > 100 µM (inactive) | > 100 µM (inactive) | > 100 µM (inactive) | > 100 µM (inactive) | > 100 µM (inactive) |  |  | 
4 | Clc1ccc(/C=C/c2nc3ccccc3s2)cc1Cl | 29.4 µM (inactive) | 30.1 µM (inactive) | 19.8 µM (inactive) | 18.9 µM (inactive) | > 100 µM (inactive) | > 100 µM (inactive) | 36.5 µM (inactive) | 48.2 µM (inactive) |  | 53.5 µM (inactive) | > 100 µM (inactive) | 63.2 µM (inactive) | 15.6 µM (inactive) | 47.8 µM (inactive) | 42.8 µM (inactive) | > 10 µM (inactive) | 34.4 µM (inactive) | 50.6 µM (inactive) |  | 
5 | COC1C(N(C)C)=C(c2ccccc2)C(=O)N2CCc3ccccc3C12 (configuration not stated) | > 100 µM (inactive) |  | > 100 µM (inactive) | > 100 µM (inactive) | > 100 µM (inactive) |  | > 100 µM (inactive) | > 100 µM (inactive) | > 100 µM (inactive) |  | > 100 µM (inactive) | > 100 µM (inactive) | > 100 µM (inactive) | > 100 µM (inactive) | > 100 µM (inactive) | > 100 µM (inactive) | > 100 µM (inactive) |  | > 100 µM (inactive) | > 100 µM (inactive)
6 | C[C@@H](c1ccccc1)C(CC#N)[C@H]1CCC[C@]1(O)C#Cc1ccc2c(c1)OCO2 (some centres not stated) | 16.6 µM (inactive) |  | 15.8 µM (inactive) | 14 µM (inactive) | 15.2 µM (inactive) | 18.1 µM (inactive) | 16.9 µM (inactive) | 15.8 µM (inactive) | 17.5 µM (inactive) | 16.1 µM (inactive) | 15.3 µM (inactive) | 16 µM (inactive) | 15.8 µM (inactive) | 16.9 µM (inactive) | 19.6 µM (inactive) | 17.6 µM (inactive) | 16 µM (inactive) | 15.6 µM (inactive) | 14.4 µM (inactive) | 19.8 µM (inactive)
7 | Oc1cn(-c2ccc(Cl)cc2)nc1-c1n[nH]c(=S)n1-c1ccccc1 | 18.8 µM (inactive) |  | 8.09 µM (inactive) | > 100 µM (inactive) | 19.8 µM (inactive) | 3.95 µM (inactive) | 7 µM (inactive) | 16.2 µM (inactive) | 6.22 µM (inactive) | 10.6 µM (inactive) | 5.01 µM (inactive) | 3.79 µM (inactive) | 52.6 µM (inactive) | 14.9 µM (inactive) | 10.4 µM (inactive) | 22.4 µM (inactive) | 22 µM (inactive) | 2.51 µM (inactive) | 11.1 µM (inactive) | 14 µM (inactive)
8 | O=C1C(=Cc2cccc(O)c2)N=C(c2ccccc2)N1n1c(-c2ccccc2)nc2ccccc2c1=O | 21.6 µM (inactive) |  | 24.7 µM (inactive) | 15.5 µM (inactive) | 32.6 µM (inactive) | 37.3 µM (inactive) | 37.2 µM (inactive) | 27.7 µM (inactive) | 0.48 µM (active) | 23.6 µM (inactive) | 17.1 µM (inactive) | 68.5 µM (inactive) | 29.6 µM (inactive) | 31.4 µM (inactive) | 25 µM (inactive) |  | 48.3 µM (inactive) | 22.4 µM (inactive) | 8.28 µM (inactive) | 34.7 µM (inactive)
9 | CCCC[C@@H](C)/C=C1\CN2CCC[C@H]2[C@@](C)(O)[C@@H]1O | 42 µM (inactive) |  | 4.2 µM (inactive) | 17.2 µM (inactive) | 43.2 µM (inactive) | > 100 µM (inactive) | 53 µM (inactive) | > 100 µM (inactive) | > 100 µM (inactive) | 16.7 µM (inactive) | 56.1 µM (inactive) | 58.9 µM (inactive) | 21.9 µM (inactive) | 65.5 µM (inactive) | 44.7 µM (inactive) | > 100 µM (inactive) | > 100 µM (inactive) | > 100 µM (inactive) | 0.0292 µM (active) | > 100 µM (inactive)
10 | CNC(=S)N(C1CCCCC1)C1CCCCC1 | 98.4 µM (inactive) |  | 70.6 µM (inactive) | 50.8 µM (inactive) | 41.1 µM (inactive) | 29.9 µM (inactive) | > 100 µM (inactive) | 47 µM (inactive) | > 100 µM (inactive) | 50.9 µM (inactive) |  | > 100 µM (inactive) | 90.6 µM (inactive) | > 100 µM (inactive) | > 100 µM (inactive) | 76.9 µM (inactive) | > 100 µM (inactive) | > 100 µM (inactive) | > 100 µM (inactive) | 
11 | COc1cccc(C2c3cc4c(cc3OC(O)C2C)OCO4)c1OC (configuration not stated) | 3.18 µM (inactive) | 10.1 µM (inactive) | 2.14 µM (inactive) | 1.66 µM (inactive) | 3.66 µM (inactive) | 2.7 µM (inactive) | 11.1 µM (inactive) | 11 µM (inactive) | 2.51 µM (inactive) | 3.71 µM (inactive) |  |  |  | 3.06 µM (inactive) | 7.36 µM (inactive) | 5.2 µM (inactive) | 7.4 µM (inactive) | 2.79 µM (inactive) | 3.4 µM (inactive) | 4.49 µM (inactive)
12 | [O-][S+](C(c1ccccc1)=P(c1ccccc1)(c1ccccc1)c1ccccc1)c1ccc(Cl)cc1 (configuration not stated) | 26.4 µM (inactive) |  | 60.5 µM (inactive) | 13.1 µM (inactive) | 21.3 µM (inactive) | 14.2 µM (inactive) | 25.5 µM (inactive) |  | 55.7 µM (inactive) | 24.2 µM (inactive) | 11.8 µM (inactive) | 66.7 µM (inactive) | 17.1 µM (inactive) | 28.1 µM (inactive) | 20.4 µM (inactive) | 20.8 µM (inactive) | 31.9 µM (inactive) | 22.3 µM (inactive) | 21.3 µM (inactive) | 11.1 µM (inactive)
13 | COc1cccc2c1C(=O)c1c(O)c3c(c(O)c1C2=O)CC(O)(C(C)=O)CC3OC1OC(COC(C)=O)C(OC(C)=O)C(OC(C)=O)C1OC(C)=O (configuration not stated) | 17.4 µM (inactive) |  |  | 0.515 µM (active) | 25.7 µM (inactive) | 18.5 µM (inactive) | 43.8 µM (inactive) | 35.6 µM (inactive) |  | > 100 µM (inactive) | > 100 µM (inactive) | > 100 µM (inactive) | 18 µM (inactive) | 11.5 µM (inactive) | 11.4 µM (inactive) | 55.7 µM (inactive) | 22.9 µM (inactive) | 14 µM (inactive) | 0.269 µM (active) | 
14 | O=C(/C=C(\N=P(c1ccccc1)(c1ccccc1)c1ccccc1)C(F)(F)C(F)(F)C(F)(F)C(F)(F)C(F)(F)C(F)(F)C(F)(F)F)c1ccccc1 | > 100 µM (inactive) | > 100 µM (inactive) | > 100 µM (inactive) | > 100 µM (inactive) | > 100 µM (inactive) | > 100 µM (inactive) | > 100 µM (inactive) | > 100 µM (inactive) |  | > 100 µM (inactive) |  | > 100 µM (inactive) | > 100 µM (inactive) |  | > 100 µM (inactive) | > 100 µM (inactive) | > 100 µM (inactive) | > 100 µM (inactive) | > 100 µM (inactive) | 
15 | CC(O[Si](c1ccccc1)(c1ccccc1)C(C)(C)C)[C@H](NC(=O)OC(C)(C)C)C(=O)O[Si](c1ccccc1)(c1ccccc1)C(C)(C)C (some centres not stated) | 10.8 µM (inactive) |  | 12.4 µM (inactive) | 10.9 µM (inactive) | 11.7 µM (inactive) | 13.2 µM (inactive) | 15.7 µM (inactive) | 16.5 µM (inactive) |  | 11.5 µM (inactive) |  | 14.4 µM (inactive) | 1.46 µM (inactive) | 15.6 µM (inactive) | 14.3 µM (inactive) |  | 16.9 µM (inactive) |  | 13 µM (inactive) | > 10 µM (inactive)
16 | Cc1cc(-c2nc3cccc(O)c3s2)ccc1N | 18.2 µM (inactive) | 18.5 µM (inactive) | 20.8 µM (inactive) | 43.8 µM (inactive) | 36.3 µM (inactive) | 45.4 µM (inactive) | 16.2 µM (inactive) |  | 45.1 µM (inactive) | 29.1 µM (inactive) |  | 21.1 µM (inactive) |  | 24.2 µM (inactive) | 17.6 µM (inactive) | 34.7 µM (inactive) | 33.6 µM (inactive) | 44.4 µM (inactive) | > 100 µM (inactive) | 
